Patent US4472404A, “8-Quinolinyl carbamates and their use as urinary tract antimicrobials” (priority 1982, dated 1984)
In brackets after ≈: the same amount, converted by molar mass. Read-outs that look alike come from different tables or passages of the source.

Legend:
Format in all cases: cell-based
Aspergillus niger = assay: Agar-plate minimum inhibitory concentration (Example 12); settings: agar, 72-120 hours, read-out: Minimum Inhibitory Concentration
Procedure: (§1) The test compound was added to molten agar as a solution (when conveniently soluble in a solvent such as dimethylformamide) or a suspension forming a mixture having a concentration of 0.05 percent (500 ppm). The mixture was stirred and poured into plates to harden. When hardened, the plates were inoculated with various bacteria and fungi. The bacteria-inoculated plates were incubated at 37° C. for 24 hours, while the fungi-inoculated plates were incubated for about 72-120 hours. Following incubation, the plates were examined for growth or inhibition of the respective organisms.
(§2) After the initial readings, compounds showing sufficient activity were re-tested at various concentrations to determine the minimum inhibitory concentration (in ppm) of the compounds of the invention against the various bacteria and fungi tested.

Bacillus subtilis = assay: as above; settings: agar, 37° C., 24 hours, read-out: Minimum Inhibitory Concentration
Procedure: as §1, §2

Candida albicans = assay: as above; settings: agar, 72-120 hours, read-out: Minimum Inhibitory Concentration
Procedure: as §1, §2

Candida pelliculosa = assay: as above; settings: Hansenula anomala; Candida pelliculosa; agar, 72-120 hours; read-out: Minimum Inhibitory Concentration
Procedure: as §1, §2

Ceratocystis ips = assay: as above; settings: Ceratocystis ips; agar, 72-120 hours; read-out: Minimum Inhibitory Concentration
Procedure: as §1, §2

Salmonella typhosa = assay: as above; settings: Salmonella enterica; Salmonella typhosa; agar, 37° C., 24 hours; read-out: Minimum Inhibitory Concentration
Procedure: as §1, §2

Streptococcus mutans = assay: as above; settings: agar, 37° C., 24 hours, read-out: Minimum Inhibitory Concentration
Procedure: as §1, §2

[1] = system: Trichophyton mentagrophytes; assay: as above; settings: agar, 72-120 hours, read-out: Minimum Inhibitory Concentration
Procedure: as §1, §2

[2] = system: Enterobacter aerogenes ATCC 13048; assay: Minimum inhibitory concentration, urinary tract organisms (Example 13); settings: Klebsiella aerogenes
Procedure: as §1, §2
(§3) Following a procedure substantially the same as that described in Example 12, the minimum inhibitory concentration for the compounds described herein was determined for various organisms representative of those commonly associated with urinary tract infections.
(§4) The organisms used in this procedure and the abbreviations designated in Table 3 are as follows: […]

[3] = system: Escherichia coli ATCC 11229; assay: as above
Procedure: as §1, §2, §3, §4

[4] = system: Escherichia coli ATCC 25922; assay: as above
Procedure: as §1, §2, §3, §4

[5] = system: Escherichia coli ATCC 4157; assay: as above
Procedure: as §1, §2, §3, §4

[6] = system: Escherichia coli ATCC 9723; assay: as above
Procedure: as §1, §2, §3, §4

[7] = system: Klebsiella pneumoniae ATCC 23357; assay: as above
Procedure: as §1, §2, §3, §4

[8] = system: Klebsiella pneumoniae M-1; assay: as above
Procedure: as §1, §2, §3, §4

[9] = system: Klebsiella pneumoniae M-2; assay: as above
Procedure: as §1, §2, §3, §4

[10] = system: Klebsiella pneumoniae M-6; assay: as above
Procedure: as §1, §2, §3, §4

Proteus mirabilis 470/1 = assay: as above
Procedure: as §1, §2, §3, §4

[11] = system: Pseudomonas aeruginosa ATCC 10145; assay: as above
Procedure: as §1, §2, §3, §4

[12] = system: Pseudomonas aeruginosa ATCC 27853; assay: as above
Procedure: as §1, §2, §3, §4

[13] = system: Pseudomonas aeruginosa ATCC 7700; assay: as above
Procedure: as §1, §2, §3, §4

[14] = system: Pseudomonas aeruginosa PRD-10; assay: as above
Procedure: as §1, §2, §3, §4

Serratia marcescens M-1 = assay: as above
Procedure: as §1, §2, §3, §4

[15] = system: Staphylococcus aureus ATCC 25923; assay: as above
Procedure: as §1, §2, §3, §4

[16] = ATCC13048, Ea 13048, read-out: Minimum Inhibitory Concentration
[17] = ATCC11229, Ec 11229, read-out: Minimum Inhibitory Concentration
[18] = ATCC25922, Ec 25922, read-out: Minimum Inhibitory Concentration
[19] = ATCC4157, Ec 4157, read-out: Minimum Inhibitory Concentration
[20] = ATCC9723, Ec 9723, read-out: Minimum Inhibitory Concentration
[21] = ATCC23357, Kp 23357, read-out: Minimum Inhibitory Concentration
[22] = M1, Kp M-1, read-out: Minimum Inhibitory Concentration
[23] = M2, Kp M-2, read-out: Minimum Inhibitory Concentration
[24] = M6, Kp M-6, read-out: Minimum Inhibitory Concentration
[25] = Pm 470/1, read-out: Minimum Inhibitory Concentration
[26] = ATCC10145, Pa 10145, read-out: Minimum Inhibitory Concentration
[27] = ATCC27853, Pa 27853, read-out: Minimum Inhibitory Concentration
[28] = ATCC7700, Pa 7700, read-out: Minimum Inhibitory Concentration
[29] = PRD10, Pa PRD-10, read-out: Minimum Inhibitory Concentration
[30] = M1, Sr M-1, read-out: Minimum Inhibitory Concentration
[31] = ATCC25923, Sa 25923, read-out: Minimum Inhibitory Concentration
[32] = M1, read-out: Minimum Inhibitory Concentration

SMILES | MIC (Aspergillus niger) | MIC (Bacillus subtilis) | MIC (Candida albicans) | MIC (Candida pelliculosa) | MIC (Ceratocystis ips) | MIC [2, 16] | MIC [3, 17] | MIC [4, 18] | MIC [5, 19] | MIC [6, 20] | MIC [7, 21] | MIC [8, 22] | MIC [9, 23] | MIC [10, 24] | MIC (Proteus mirabilis 470/1; [25]) | MIC [12, 27] | MIC [13, 28] | MIC [14, 29] | MIC (Serratia marcescens M-1; [30]) | MIC [15, 31] | also measured
CCOC(=O)CNC(=O)Oc1ccc(Cl)c2cccnc12 [Example 1, Ethyl N-(((5-chloro-8-quinolinyl)oxy)-carbonyl)glycinate] | 10 µg/mL (≈ 32.4 µM) | 10 µg/mL (≈ 32.4 µM) | 10 µg/mL (≈ 32.4 µM) | 10 µg/mL (≈ 32.4 µM) | 50 µg/mL (≈ 162 µM) | 50 µg/mL (≈ 162 µM) | 25 µg/mL (≈ 81 µM) | 25 µg/mL (≈ 81 µM) | 25 µg/mL (≈ 81 µM) | 25 µg/mL (≈ 81 µM) | 25 µg/mL (≈ 81 µM) | 50 µg/mL (≈ 162 µM) | 50 µg/mL (≈ 162 µM) | 25 µg/mL (≈ 81 µM) | 50 µg/mL (≈ 162 µM) | 100 µg/mL (≈ 324 µM) | 100 µg/mL (≈ 324 µM) | 100 µg/mL (≈ 324 µM) | 50 µg/mL (≈ 162 µM) | ≤ 5 µg/mL | MIC (Salmonella typhosa): 50 µg/mL (≈ 162 µM); MIC (Streptococcus mutans): 100 µg/mL (≈ 324 µM); MIC [1]: 10 µg/mL (≈ 32.4 µM); MIC [11, 26]: 25 µg/mL (≈ 81 µM)
CCOC(=O)CNC(=O)Oc1c(Br)cc(Br)c2cccnc12 [Example 2, Ethyl N-(((5,7-dibromo-8-quinolinyl)oxy)carbonyl)glycinate] | 50 µg/mL (≈ 116 µM) | 0.5 µg/mL (≈ 1.16 µM) | 50 µg/mL (≈ 116 µM) | 10 µg/mL (≈ 23.1 µM) | 50 µg/mL (≈ 116 µM) | 75 µg/mL (≈ 174 µM) | 25 µg/mL (≈ 57.9 µM) | 25 µg/mL (≈ 57.9 µM) | 25 µg/mL (≈ 57.9 µM) | 25 µg/mL (≈ 57.9 µM) | 250 µg/mL (≈ 579 µM) | 50 µg/mL (≈ 116 µM) | 25 µg/mL (≈ 57.9 µM) | 25 µg/mL (≈ 57.9 µM) | 25 µg/mL (≈ 57.9 µM) | 75 µg/mL (≈ 174 µM) | 250 µg/mL (≈ 579 µM) | 75 µg/mL (≈ 174 µM) | 250 µg/mL (≈ 579 µM) | 25 µg/mL (≈ 57.9 µM) | MIC (Salmonella typhosa): 50 µg/mL (≈ 116 µM); MIC (Streptococcus mutans): 50 µg/mL (≈ 116 µM); MIC [1]: 50 µg/mL (≈ 116 µM); MIC [11, 26]: 25 µg/mL (≈ 57.9 µM)
CCOC(=O)CNC(=O)Oc1cccc2ccc(C)nc12 [Example 3, Ethyl N-(((2-methyl-8-quinolinyl)oxy)carbonyl)glycinate] | 500 µg/mL (≈ 1730 µM) | 10 µg/mL (≈ 34.7 µM) | 500 µg/mL (≈ 1730 µM) | 500 µg/mL (≈ 1730 µM) | 500 µg/mL (≈ 1730 µM) | 250 µg/mL (≈ 867 µM) | 75 µg/mL (≈ 260 µM) | 75 µg/mL (≈ 260 µM) | 100 µg/mL (≈ 347 µM) | 100 µg/mL (≈ 347 µM) | 250 µg/mL (≈ 867 µM) | 250 µg/mL (≈ 867 µM) | 250 µg/mL (≈ 867 µM) | 250 µg/mL (≈ 867 µM) | 250 µg/mL (≈ 867 µM) | > 1000 µg/mL | > 1000 µg/mL | > 1000 µg/mL | 750 µg/mL (≈ 2600 µM) | 25 µg/mL (≈ 86.7 µM) | MIC (Salmonella typhosa): 50 µg/mL (≈ 173 µM); MIC (Streptococcus mutans): 500 µg/mL (≈ 1730 µM); MIC [1]: 500 µg/mL (≈ 1730 µM); MIC [11, 26]: 250 µg/mL (≈ 867 µM)
CCOC(=O)CNC(=O)Oc1c(Cl)cc(Cl)c2cccnc12 [Example 4, Ethyl N-(((5,7-dichloro-8-quinolinyl)oxy)carbonyl)glycinate] | 10 µg/mL (≈ 29.1 µM) | 1 µg/mL (≈ 2.91 µM) | 10 µg/mL (≈ 29.1 µM) | 5 µg/mL (≈ 14.6 µM) | 50 µg/mL (≈ 146 µM) | 25 µg/mL (≈ 72.9 µM) | 10 µg/mL (≈ 29.1 µM) | 10 µg/mL (≈ 29.1 µM) | 10 µg/mL (≈ 29.1 µM) | 10 µg/mL (≈ 29.1 µM) | 25 µg/mL (≈ 72.9 µM) | 25 µg/mL (≈ 72.9 µM) | 25 µg/mL (≈ 72.9 µM) | 25 µg/mL (≈ 72.9 µM) | 10 µg/mL (≈ 29.1 µM) | 50 µg/mL (≈ 146 µM) | 50 µg/mL (≈ 146 µM) | 50 µg/mL (≈ 146 µM) | 25 µg/mL (≈ 72.9 µM) | 10 µg/mL (≈ 29.1 µM) | MIC (Salmonella typhosa): 10 µg/mL (≈ 29.1 µM); MIC (Streptococcus mutans): 500 µg/mL (≈ 1460 µM); MIC [1]: 10 µg/mL (≈ 29.1 µM); MIC [11, 26]: 10 µg/mL (≈ 29.1 µM)
O=C(NCCCl)Oc1ccc(Cl)c2cccnc12 [Example 6, 5-Chloro-8-quinolinyl N-(2-chloroethyl)carbamate] | – | – | – | – | – | 500 µg/mL (≈ 1750 µM) | 75 µg/mL (≈ 263 µM) | 75 µg/mL (≈ 263 µM) | 250 µg/mL (≈ 877 µM) | 50 µg/mL (≈ 175 µM) | 250 µg/mL (≈ 877 µM) | 250 µg/mL (≈ 877 µM) | 500 µg/mL (≈ 1750 µM) | 250 µg/mL (≈ 877 µM) | 250 µg/mL (≈ 877 µM) | 500 µg/mL (≈ 1750 µM) | 500 µg/mL (≈ 1750 µM) | 500 µg/mL (≈ 1750 µM) | 500 µg/mL (≈ 1750 µM) | < 5 µg/mL | –
CNC(=O)Oc1c(Br)cc(Br)c2cccnc12 [Example 11, 5,7-Dibromo-8-quinolinyl N-methylcarbamate] | – | – | – | – | – | – | – | – | – | – | – | – | – | – | – | – | – | – | – | – | MIC ([2]; ATCC13048, read-out: Minimum Inhibitory Concentration): 25 µg/mL (≈ 69.4 µM); MIC ([3]; ATCC11229, read-out: Minimum Inhibitory Concentration): 25 µg/mL (≈ 69.4 µM); MIC ([4]; ATCC25922, read-out: Minimum Inhibitory Concentration): 25 µg/mL (≈ 69.4 µM); MIC ([5]; ATCC4157, read-out: Minimum Inhibitory Concentration): 25 µg/mL (≈ 69.4 µM); MIC ([6]; ATCC9723, read-out: Minimum Inhibitory Concentration): 25 µg/mL (≈ 69.4 µM); MIC ([7]; ATCC23357, read-out: Minimum Inhibitory Concentration): 25 µg/mL (≈ 69.4 µM); MIC [8, 32]: 25 µg/mL (≈ 69.4 µM); MIC ([9]; M2, read-out: Minimum Inhibitory Concentration): 25 µg/mL (≈ 69.4 µM); MIC ([10]; M6, read-out: Minimum Inhibitory Concentration): 25 µg/mL (≈ 69.4 µM); MIC (Proteus mirabilis 470/1; 470/1, read-out: Minimum Inhibitory Concentration): 25 µg/mL (≈ 69.4 µM); MIC ([11]; ATCC10145, read-out: Minimum Inhibitory Concentration): 25 µg/mL (≈ 69.4 µM); MIC ([12]; ATCC27853, read-out: Minimum Inhibitory Concentration): 100 µg/mL (≈ 278 µM); MIC ([13]; ATCC7700, read-out: Minimum Inhibitory Concentration): 100 µg/mL (≈ 278 µM); MIC ([14]; PRD10, read-out: Minimum Inhibitory Concentration): 100 µg/mL (≈ 278 µM); MIC (Serratia marcescens M-1; [32]): 50 µg/mL (≈ 139 µM); MIC ([15]; ATCC25923, read-out: Minimum Inhibitory Concentration): 25 µg/mL (≈ 69.4 µM)
